Patent US20110195892A1, “Artifical Pulmonary Surfactant Compositions” (priority 2005, published 2011)
Square brackets hold non-standard residues; d marks the D form. Peptide text beside a SMILES is read from it.

Assays:
erythrocyte = type: cell-based
Protocol: The hemolytic activity of each peptide was measured in the way as will be described hereinafter.
Each peptide (ca. 1 mg) was dissolved in 20 (l of 100% acetic acid and diluted with phosphate buffer to reach a total amount of 5 ml. The resulting solution was measured for its absorbency (280 nm) to determine its concentration. The solution was then used for experiments in situ by dilution with phosphate buffer.
A blood sample (ca. 3 ml) was centrifuged at 2,000 rpm at 4° C. for 10 minutes and the supernatant was removed to form an erythrocyte sample. To the erythrocyte sample was added 1 ml of phosphate buffer, and the resulting solution was stirred well, followed by centrifugation in the manner as described above. These procedures were repeated three times to obtain the erythrocyte alone. Moreover, 1 ml of phosphate buffer was added to the resulting erythrocyte, and the resulting mixture was stirred well, followed by distributing it by 60 μl to microtubes and centrifuging to remove the supernatant therefrom. The resulting erythrocyte was in turn used for further experiments.
The peptide and a protein solution were then added by 1 ml to the erythrocyte sample, and the resulting solution was stirred well, followed by allowing it to stand at 25° C. for 60 minutes. Thereafter, the tubes were centrifuged to collect the supernatant only (100 μl) which was in turn measured at an absorbency of 542 nm. The supernatant was then returned to each tube and a drop of surfactant Triton® X was added to each tube, followed by stirring it well and measuring for its absorbency at 542 nm.

[1] = Wilhelmy tensiometer; Japanese Patent Publication No. 2004-305006 A1; cited from earlier work

H-KLLKLLLKLWLKLLKLLL-OH [Hel 13-5, NH2-Lys Leu Leu Lys Leu Leu Leu Lys Leu Trp Leu Lys Leu Leu Lys Leu Leu Leu-COOH]
hemolytic activity (in words) (erythrocyte): strong hemolytic activity
hemolytic property (erythrocyte): does not demonstrate a hemolytic property
surface tension-surface area curve (hysteresis curve) compared with Surfacten [1]: equal curve to that of Surfacten®

CC(C)C[C@H](NC(=O)[C@H](CC(C)C)NC(=O)[C@H](CC(C)C)NC(=O)[C@H](CCCCN)NC(=O)[C@@H](CC(C)C)NC(=O)[C@H](CC(C)C)NC(=O)[C@H](CCCCN)NC(=O)[C@H](CC(C)C)NC(=O)[C@H](Cc1c[nH]c2ccccc12)NC(=O)[C@H](CC(C)C)NC(=O)[C@@H](CCCCN)NC(=O)[C@@H](CC(C)C)NC(=O)[C@H](CC(C)C)NC(=O)[C@H](CC(C)C)NC(=O)[C@H](CCCCN)NC(=O)[C@H](CC(C)C)NC(=O)[C@H](CC(C)C)NC(=O)[C@@H](N)CCCCN)C(=O)O [Hel 13-5D3, NH2-Lys Leu Leu Lys Leu Leu D-Leu D-Lys Leu Trp Leu Lys D-Leu Leu Lys Leu Leu Leu-COOH] (H-KLLKLL[dL][dK]LWLKL[dL]KLLL-OH)
hemolytic activity of the peptide itself compared to peptide Hel 13-5 (erythrocyte): lower by several times
